The values that follow come from publication PMC11505029, “Isatin Bis-Imidathiazole Hybrids Identified as FtsZ Inhibitors with On-Target Activity Against Staphylococcus aureus” (Antibiotics, 2024).

By IC50 is commonly meant the point on the concentration scale where inhibition reaches its midpoint. The CC50 is the concentration giving 50% cytotoxicity. Higher therefore signals lower toxicity to the cells.

One data set relates to S. aureus ATCC 25923. Kind of data set: broth microdilution antimicrobial activity, S. aureus reference strain. It is filed as cell-based, Staphylococcus aureus. Here is the method:
(§1) Reference bacterial strains of Staphylococcus aureus (ATCC 25923), Escherichia coli (ATCC 25922), and Candida albicans (ATCC 10231) were used in this study as Gram-positive, Gram-negative, and fungal models, respectively. These reference strains were purchased from the American Type Culture Collection (ATCC, Manassas, VA, USA); bacterial cultures were routinely grown at 37 °C on 5% blood agar plate, while fungal cultures on Sabouraud Dextrose Agar (Biolife Italiana S.r.l., Milan, Italy).
(§2) The dry powder of the isatin derivatives was resuspended in dimethylsulfoxide (DMSO) at 20 mM and used as stock solutions. For biological investigations, compounds were used in the range 100–0.78 µM, and the solvent in the corresponding percentage range.
(§3) The antimicrobial activity of the compounds was assessed by a well-established broth microdilution procedure in microtiter plates and in compliance with the Clinical and laboratory Standard Institute (CLSI) guidelines (Clinical and Laboratory Standards Institute, Wayne, PA, USA). In short, microbial inocula were prepared at 0.5 McFarland in PBS and, subsequently, bacterial suspensions were diluted 1:200 in Mueller–Hinton broth (Sigma-Aldrich, St. Louis, MO, USA), while fungal inoculum was diluted 1:20 in RPMI-1640 medium (Gibco®, ThermoFisher Scientific Inc., Waltham, MA, USA), containing 2% glucose and 0.3% levo-glutamine buffered to pH 7.0 with 0.165 M 3-(N-morpholino)propanesulfonic acid (MOPS). A total of 100 µL of these microbial suspensions were introduced in a 96-well microplate and incubated with 100 µL of the compounds, two-fold serially diluted in the range of 100–0.19 µM. Positive controls (microbial suspensions in regular media), negative controls (only compounds), and solvent controls (microbial suspensions incubated with DMSO dilutions) were included in the tests. The plate was incubated at 37 °C for 24 h, and subsequently, the optical density at 630 nm (OD630nm) was spectrophotometrically measured. Each experiment was carried out with three technical replicates (i.e., three wells per sample) and repeated at least two times for statistical power. […] IC50 values, corresponding to the concentration of the compound giving rise to an inhibition of growth of 50%, were obtained by interpolation on dose–response curves generated by plotting the percentages of growth inhibition, relative to the positive control (set to 100% of growth), as a function of the tested concentrations (on a logarithm scale). Statistical analysis was carried out using GraphPad Prism version 9.4.1 for Windows (GraphPad Software, San Diego, CA, USA, www.graphpad.com).
For orientation: Dilution methods test growth across graded concentrations, often in twofold steps.

A further data set has as its system S. aureus MRSA 4. Nature of the data set: dose-response against clinical isolate MRSA 4. The following applies: Staphylococcus aureus, mean [95% confidence interval]. It is filed as cell-based. Here is the method:
(§4) The antimicrobial activity of the compounds was assessed by a well-established broth microdilution procedure in microtiter plates and in compliance with the Clinical and laboratory Standard Institute (CLSI) guidelines (Clinical and Laboratory Standards Institute, Wayne, PA, USA). In short, microbial inocula were prepared at 0.5 McFarland in PBS and, subsequently, bacterial suspensions were diluted 1:200 in Mueller–Hinton broth (Sigma-Aldrich, St. Louis, MO, USA), while fungal inoculum was diluted 1:20 in RPMI-1640 medium (Gibco®, ThermoFisher Scientific Inc., Waltham, MA, USA), containing 2% glucose and 0.3% levo-glutamine buffered to pH 7.0 with 0.165 M 3-(N-morpholino)propanesulfonic acid (MOPS). A total of 100 µL of these microbial suspensions were introduced in a 96-well microplate and incubated with 100 µL of the compounds, two-fold serially diluted in the range of 100–0.19 µM. Positive controls (microbial suspensions in regular media), negative controls (only compounds), and solvent controls (microbial suspensions incubated with DMSO dilutions) were included in the tests. The plate was incubated at 37 °C for 24 h, and subsequently, the optical density at 630 nm (OD630nm) was spectrophotometrically measured. Each experiment was carried out with three technical replicates (i.e., three wells per sample) and repeated at least two times for statistical power. […]

Data set [1] concerns S. aureus ATCC 25923 biofilm. Kind of data set: antibiofilm activity, crystal violet staining. The note with it: 200–25 µM; inhibition of biofilm production; CV staining. The format is cell-based, Staphylococcus aureus. The method, then: For the evaluation of the bacterial biofilm formation, an established protocol with minor modifications was used. In short, a bacterial suspension of S. aureus ATCC 25923 was prepared in TSB (Tryptic Soy broth (TSB, Sigma-Aldrich, St. Louis, MO, USA) supplemented with 1% of glucose and adjusted to a final density of 10^5 CFU/mL. Aliquots of 100 µL of the culture were transferred to a 96-well flat-bottom polystyrene microplate, and then incubated at 37 °C for 90 min to promote bacterial adhesion. Thereafter, wells were slowly rinsed with PBS to remove non-attached cells, and 100 µL of medium containing the 2-fold serial dilutions of the compounds were added. After incubation at 37 °C for 24 h, the free-floating cells were removed, and the biofilms were carefully washed with PBS, and incubated for 1 h at 60 °C. Bacterial biomass was quantified by a standardized crystal violet (CV) staining. Briefly, 100 µL of CV solution (0.1% in water) were added to each well containing a completely air-dried biofilm, and incubated for 30 min at 37 °C. […] Finally, the colored supernatants were transferred to a new microplate and the OD550nm was read. The inhibitory effect of the compounds on biofilm production was evaluated in comparison to the positive control (S. aureus grown in absence of compounds), and negative control (only medium).

Another data set concerns C. albicans ATCC 10231. Nature of the data set: broth microdilution antimicrobial activity, C. albicans reference strain. It is filed as cell-based, Candida albicans. The note with it: 100 μM, growth relative to positive control, mean ± SD. Here is the method:
as §1, §2, §3

For a further data set, the system named is S. aureus MRSA 3. Nature of the data set: dose-response against clinical isolate MRSA 3. The format is cell-based. The following applies: Staphylococcus aureus, mean [95% confidence interval]. The method, then:
as §4

Another data set relates to E. coli ATCC 25922. Kind of data set: broth microdilution antimicrobial activity, E. coli reference strain. The format is cell-based, Escherichia coli. The note with it: 100 μM, growth relative to positive control, mean ± SD. The method, then:
as §1, §2, §3

Data set [2] has as its system Vero cell line (ATCC CCL-81). Nature of the data set: cell viability and proliferation assay (WST8/CCK-8). It is filed as cell-based. The following applies: 100 μM, viability relative to untreated controls, mean ± SD. Here is the method:
(§5) Vero cell line (ATCC CCL-81) was selected as the model system to assess the effect of the isatin hybrids on normal epithelial cells, and a previously established protocol was used with minor modifications. Briefly, cells were cultured in RPMI-1640 medium supplemented with 10% fetal bovine serum (FBS) (Carlo Erba Reagents, Milan, Italy), 100 U/mL penicillin, and 100 µg/mL streptomycin at 37 °C with 5% CO2. For experiments, cells were seeded into 96-well plates at 10^4 cells/well, and incubated at 37 °C for 24 h. Following washes with PBS, the cell monolayer was incubated with 100 µL of medium containing the 2-fold serial dilutions of the compounds. Both untreated cells and cells incubated with medium containing solvent dilutions were included in each experiment as controls. The cell viability was assessed by a WST8-based assay according to the manufacturer’s instructions (CCK-8, Cell Counting Kit-8, Dojindo Molecular Technologies, Rockville, MD, USA). After 48 h of incubation, culture medium was removed from each well, the monolayer was washed with PBS, and 100 µL of fresh medium containing 10 µL of CCK-8 solution were added. After 2 h at 37 °C, the OD450nm was read, and data were expressed as the percentage of the cell viability relative to the untreated controls. The CC50 was obtained from the corresponding dose–response curves generated, as previously reported for IC50 values.
A general note: Formazan colour is commonly taken as a measure of viable cells.

Test in data set [3]: as above
The format is cell-based. The note with it: African green monkey, Vero cells (ATCC CCL-81); Vero cells; mean [95% confidence interval]. Here is the method: as §5

The next data set concerns S. aureus MRSA 2. Nature of the data set: dose-response against clinical isolate MRSA 2. It is filed as cell-based. The following applies: Staphylococcus aureus, mean [95% confidence interval]. Here is the method: as §4
The test system of a further data set is S. aureus MRSA 1. Kind of data set: dose-response against clinical isolate MRSA 1. It is filed as cell-based. The following applies: Staphylococcus aureus, mean [95% confidence interval]. Here is the method: as §4

In the case of `O=C1Nc2cc(OC(F)(F)F)ccc2C1(c1c(Cl)nc2sccn12)c1c(Cl)nc2sccn12` [Compound 11, 3,3-bis(6-Chloroimidazo[2,1-b]thiazol-5-yl)-6-(trifluoromethoxy)indolin-2-one], the “SI (selectivity index, CC50/IC50)” value in the data set with S. aureus ATCC 25923 (CC50 Vero / IC50 S. aureus) is 4.6. The IC50 in the data set on S. aureus ATCC 25923 (Staphylococcus aureus, ATCC25923, S. aureus ATCC 25923, mean [95% confidence interval]) turned out to be 13.8 µM; in the data set with S. aureus MRSA 4 it was 11.3 µM; in the data set with S. aureus MRSA 3, 8.7 µM; in the data set on S. aureus MRSA 2, 27.5 µM; with S. aureus MRSA 1, 21.4 µM. Besides, the “biofilm biomass compared to the untreated control” value in data set [1] is given as below 10%. The “Microbial growth, C. albicans” value in the data set on C. albicans ATCC 10231 is reported as “did not inhibit the growth”. Besides, the activity at 100 µM with C. albicans ATCC 10231 (Candida albicans, ATCC10231, read-out: Microbial growth, C. albicans) was determined as 108 ± 8.5%; with E. coli ATCC 25922 (Escherichia coli, ATCC25922, read-out: Microbial growth, E. coli) it was 108 ± 2.4%. Moreover, the “Microbial growth, E. coli” value in the data set on E. coli ATCC 25922 was “did not inhibit the growth”. Further, in data set [2], the “Cell proliferation, Vero” value is “most toxic”. Further, the viability at 100 µM in [2] (Chlorocebus sabaeus, Vero, 48 h, read-out: Cell proliferation, Vero) was 21.1 ± 3.3%. This molecule also showed a CC50 at 48 h in [3] of 63.3 µM.
